Measurements from patent publication US9663478B2, “Benzotriazine oxides as drugs targeting Mycobacterium tuberculosis” (priority 2011, dated 2017).
Converted amounts (≈) assume the structure as drawn.

Assays:
Type in all cases: cell-based, Mycobacterium tuberculosis
Mtb H37Rv [1] = test: TB MIC - ITR (UIC), Institute for Tuberculosis Research; settings: for MIC: Mycobacterium tuberculosis, H37RV, Tables 1-4, read-out: TB MIC - ITR
Mtb H37Rv [2] = test: TB MIC - SRI, resazurin-based microplate assay; settings: Mycobacterium tuberculosis, H37RV
NRP Mtb H37Rv cells = test: Low-oxygen recovery assay (LORA) MIC; settings: for MIC: Mycobacterium tuberculosis, H37RV, NRP Mtb, Tables 1-4 and text, read-out: LORA MIC - ITR
[3] = Tables P1-P3, read-out: TB MIC - SRI
[4] = Tables 1-4 and text, read-out: TB MIC - SRI
[5] = read-out: TB MIC - SRI, Tables P1-P3
[6] = Table P4, read-out: Activity against H37Rv

## [O-][n+]1nc(N[C@@H]2C[C@H]3CC[C@@H]2C3)[n+]([O-])c2ccc(Cl)cc21 (racemic) [SRI-012305]
Mtb H37Rv [1]; Tables P1, P2
  TB MIC - UIC: < 0.125 µg/mL
Mtb H37Rv [2]; [3]
  MIC: 0.156 µg/mL (≈ 0.509 µM)
NRP Mtb H37Rv cells; Tables P1, P2, non-replicating M. tuberculosis
  LORA MIC: 0.2 µg/mL

## C[C@@H]1[C@H]2C[C@@H](C[C@H]1Nc1n[n+]([O-])c3cc(F)ccc3[n+]1[O-])C2(C)C (racemic) [SRI-012402]
Mtb H37Rv [2]; [3]
  MIC: 0.312 µg/mL (≈ 0.939 µM)

## [O-][n+]1nc(NC2CCC2)[n+]([O-])c2ccccc21 [Compound 8d, 3-(cyclobutylamino)benzo[e][1,2,4]triazine 1,4-dioxide]
Mtb H37Rv [1]
  MIC: 0.94 µg/mL (≈ 4.05 µM)
Mtb H37Rv [2]; [4]
  MIC: 1.2 µg/mL (≈ 5.17 µM)
NRP Mtb H37Rv cells
  MIC: 0.84 µg/mL (≈ 3.62 µM)

## [O-][n+]1nc(NC2CCCCC2)[n+]([O-])c2ccccc21 [Compound 8f, 3-(cyclohexylamino)benzo[e][1,2,4]triazine 1,4-dioxide]
Mtb H37Rv [1]
  MIC: 3.8 µg/mL (≈ 14.6 µM)
Mtb H37Rv [2]; [4]
  MIC: 2.5 µg/mL (≈ 9.6 µM)
NRP Mtb H37Rv cells
  MIC: 0.75 µg/mL (≈ 2.88 µM)

## [O-][n+]1nc(NC2CCCCCC2)[n+]([O-])c2ccccc21 [Compound 8g, 3-(cycloheptylamino)benzo[e][1,2,4]triazine 1,4-dioxide]
Mtb H37Rv [1]
  MIC: 1.6 µg/mL (≈ 5.83 µM)
Mtb H37Rv [2]; [4]
  MIC: 2.5 µg/mL (≈ 9.11 µM)
NRP Mtb H37Rv cells
  MIC: 0.5 µg/mL (≈ 1.82 µM)

## CC(C)(C)C1CCC(Nc2n[n+]([O-])c3ccccc3[n+]2[O-])CC1 (centres unmarked) [Compound 8j, 3-((4-(tert-butyl)cyclohexyl)amino)benzo[e][1,2,4]triazine 1,4-dioxide]
Mtb H37Rv [1]
  MIC: 0.22 µg/mL (≈ 0.695 µM)
Mtb H37Rv [2]; [4]
  MIC: 0.62 µg/mL (≈ 1.96 µM)
NRP Mtb H37Rv cells
  MIC: < 0.12 µg/mL

## [O-][n+]1nc(NC2CCC2)[n+]([O-])c2ccc(Cl)cc21 [Compound 15bd, 7-chloro-3-(cyclobutylamino)benzo[e][1,2,4]triazine 1,4-dioxide]
Mtb H37Rv [2]; [4]
  MIC: 0.15 µg/mL (≈ 0.562 µM)
NRP Mtb H37Rv cells
  MIC: < 0.12 µg/mL

## CC(C)(C)Nc1n[n+]([O-])c2ccccc2[n+]1[O-] [SRI-003356]
Mtb H37Rv [2]; [5]
  MIC: 1.25 µg/mL (≈ 5.34 µM)

## CCN(CC)c1n[n+]([O-])c2ccccc2[n+]1[O-] [SRI-009728]
Mtb H37Rv [1]; Table P3
  TB MIC - UIC: 12.4 µg/mL
Mtb H37Rv [2]; [3]
  MIC: 0.312 µg/mL (≈ 1.33 µM)

## Nc1n[n+]([O-])c2cc(Br)ccc2[n+]1[O-] [SRI-012396]
Mtb H37Rv [2]; [3]
  MIC: 1.25 µg/mL (≈ 4.86 µM)

## Cc1cccc2c1[n+]([O-])c(N)n[n+]2[O-] [SRI-012397]
Mtb H37Rv [2]; [3]
  MIC: 0.625 µg/mL (≈ 3.25 µM)

## Nc1n[n+]([O-])c2cc3c(cc2[n+]1[O-])CCC3 [SRI-012398]
Mtb H37Rv [2]; [3]
  MIC: 2.5 µg/mL (≈ 11.5 µM)

## CCNc1n[n+]([O-])c2cc(C)c(C)cc2[n+]1[O-] [SRI-012399]
Mtb H37Rv [2]; [3]
  MIC: 2.5 µg/mL (≈ 10.7 µM)

## CC(C)(C)C1CCC(Nc2n[n+]([O-])c3cc(F)ccc3[n+]2[O-])CC1 (centres unmarked) [SRI-012401]
Mtb H37Rv [2]; [3]
  MIC: 0.312 µg/mL (≈ 0.933 µM)

## COc1ccc2c(c1)[n+]([O-])nc(N[C@@H]1C[C@H]3CC[C@@H]1C3)[n+]2[O-] [SRI-012462]
Mtb H37Rv [2]; [3]
  MIC: 0.625 µg/mL (≈ 2.07 µM)

## CCNc1n[n+]([O-])c2cc(Br)ccc2[n+]1[O-] [SRI-012464]
Mtb H37Rv [2]; [3]
  MIC: 0.625 µg/mL (≈ 2.19 µM)

## [O-][n+]1nc(NC2CCC2)[n+]([O-])c2ccc(Br)cc21 [SRI-012465]
Mtb H37Rv [2]; [3]
  MIC: 0.156 µg/mL (≈ 0.501 µM)

## [O-][n+]1nc(NC2CCCC2)[n+]([O-])c2ccc(Br)cc21 [SRI-012466]
Mtb H37Rv [2]; [3]
  MIC: 0.156 µg/mL (≈ 0.48 µM)

## [O-][n+]1nc(N2CCCC2)[n+]([O-])c2ccccc21 [SRI-012495]
Mtb H37Rv [1]; Table P3
  TB MIC - UIC: 17.4 µg/mL
Mtb H37Rv [2]; [3]
  MIC: 0.312 µg/mL (≈ 1.34 µM)

## [O-][n+]1nc(N2CCCC2)[n+]([O-])c2cc3c(cc21)CCC3 [SRI-012530]
Mtb H37Rv [2]; read-out: Activity against H37Rv, Table P4
  MIC: 0.62 µg/mL (≈ 2.28 µM)
Mtb H37Rv [2]; [5]
  MIC: 0.625 µg/mL (≈ 2.3 µM)

## [O-][n+]1nc(N2CCCCC2)[n+]([O-])c2cc3c(cc21)CCC3 [SRI-012562]
Mtb H37Rv [2]; [3]
  MIC: 0.625 µg/mL (≈ 2.18 µM)

## CN(C)c1n[n+]([O-])c2cc3c(cc2[n+]1[O-])CCC3 [SRI-012563]
Mtb H37Rv [2]; [3]
  MIC: 0.625 µg/mL (≈ 2.54 µM)

## CN(Cc1ccccc1)c1n[n+]([O-])c2cc3c(cc2[n+]1[O-])CCC3 [SRI-012564]
Mtb H37Rv [2]; [3]
  MIC: 0.312 µg/mL (≈ 0.968 µM)

## CN(CCc1ccccc1)c1n[n+]([O-])c2cc3c(cc2[n+]1[O-])CCC3 [SRI-012565]
Mtb H37Rv [2]; [3]
  MIC: 0.312 µg/mL (≈ 0.927 µM)

## O=S1(=O)CCN(c2n[n+]([O-])c3cc4c(cc3[n+]2[O-])CCC4)CC1 [SRI-012566]
Mtb H37Rv [2]; [6]
  MIC: 5 µg/mL (≈ 14.9 µM)
Mtb H37Rv [2]; [3]
  MIC: 5 µg/mL (≈ 14.9 µM)

## CC1CCCCN1c1n[n+]([O-])c2cc3c(cc2[n+]1[O-])CCC3 (centres unmarked) [SRI-012567]
Mtb H37Rv [2]; [6]
  MIC: 1.25 µg/mL (≈ 4.16 µM)
Mtb H37Rv [2]; [3]
  MIC: 1.25 µg/mL (≈ 4.16 µM)

## CS(=O)(=O)N1CCN(c2n[n+]([O-])c3cc4c(cc3[n+]2[O-])CCC4)CC1 [SRI-012568]
Mtb H37Rv [2]; [6]
  MIC: 5 µg/mL (≈ 13.7 µM)
Mtb H37Rv [2]; [3]
  MIC: 5 µg/mL (≈ 13.7 µM)
